Measured values as given in patent publication US10245261B2, “Substituted indol-5-ol derivatives and their therapeutic applications” (NantBioScience, Inc., priority 2013, dated 2019).

Experiments:
Test in all cases: KinaseProfiler kinase assay
Assay type in all cases: biochemical
Flt3(h) = biological target: T1, Flt3(h) (Homo sapiens, UniProt P36888)
T1 sequence (P36888 27-993): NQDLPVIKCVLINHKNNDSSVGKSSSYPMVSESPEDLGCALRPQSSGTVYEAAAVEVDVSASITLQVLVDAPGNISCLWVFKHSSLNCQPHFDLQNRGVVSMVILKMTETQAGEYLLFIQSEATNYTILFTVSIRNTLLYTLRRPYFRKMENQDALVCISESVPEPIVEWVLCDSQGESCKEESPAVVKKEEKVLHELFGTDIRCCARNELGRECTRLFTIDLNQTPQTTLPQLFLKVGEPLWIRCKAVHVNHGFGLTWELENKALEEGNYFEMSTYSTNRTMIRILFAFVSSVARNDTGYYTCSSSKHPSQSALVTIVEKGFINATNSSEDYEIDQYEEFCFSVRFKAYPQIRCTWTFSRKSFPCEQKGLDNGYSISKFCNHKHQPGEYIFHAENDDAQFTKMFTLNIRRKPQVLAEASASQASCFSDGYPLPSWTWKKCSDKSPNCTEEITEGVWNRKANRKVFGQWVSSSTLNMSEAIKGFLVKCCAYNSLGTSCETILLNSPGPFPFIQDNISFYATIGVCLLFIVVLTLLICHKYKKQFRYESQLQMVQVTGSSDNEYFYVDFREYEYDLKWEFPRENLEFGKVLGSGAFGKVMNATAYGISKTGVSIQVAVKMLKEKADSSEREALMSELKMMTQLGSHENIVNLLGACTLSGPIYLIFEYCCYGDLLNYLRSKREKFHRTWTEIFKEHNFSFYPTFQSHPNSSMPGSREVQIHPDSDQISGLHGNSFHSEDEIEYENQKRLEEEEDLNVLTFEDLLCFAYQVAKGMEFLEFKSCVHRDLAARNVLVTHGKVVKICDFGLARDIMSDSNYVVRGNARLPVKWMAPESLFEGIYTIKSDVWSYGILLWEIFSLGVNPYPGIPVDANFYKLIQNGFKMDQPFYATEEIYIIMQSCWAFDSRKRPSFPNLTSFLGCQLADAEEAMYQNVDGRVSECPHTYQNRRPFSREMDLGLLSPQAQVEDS
Method: (§1) This example tests the inhibitory properties of representative compounds of the invention in c-Src kinase, Aurora-A kinase, Flt3 kinase, Ret kinase and TrkA Kinase assays (see, Daniele Fancelli et al, J. Med. Chem., 2006, 49 (24), pp 7247-7251). The KinaseProfiler™ Service Assay Protocols (Millipore) was used to test the kinase inhibiting activity of novel compounds from this invention. To do this, the buffer composition was as: 20 mM MOPS, 1 mM EDTA, 0.01% Brij-35, 5% Glycerol, 0.1% β-mercaptoethanol, 1 mg/mL BSA. Test compounds were initially dissolved in DMSO at the desired concentration, then serially diluted to the kinase assay buffer. In a final reaction volume of 25 μL, Aurora-A(h) (5-10 mU) is incubated with 8 mM MOPS pH 7.0, 0.2 mM EDTA, 200 μM LRRASLG (Kemptide), 10 mM MgAcetate and [γ^33P-ATP]. The reaction was initiated by the addition of the MgATP mix. After incubation for 40 minute at room temperature, the reaction was stopped by addition of 5 μL of a 3% phosphoric acid solution. 10 μL of the reaction was then spotted onto a P30 filtermat and washed three times for 5 minutes in 50 mM phosphoric acid and once in methanol prior to drying and scintillation counting. Wells containing substrate but no kinase and wells containing a phosphopeptide control were used to set 0% and 100% phosphorylation value, respectively.
(§2) The Kinase Hotspot℠ kinase assay was also used to test the compounds for IC50 or % inhibitions (Reaction Biology Corp.). Inhibitory IC50 values were determined by titration of compound at the optimal kinase concentration (Kinase EC50).

Aurora-A(h) = biological target: T2, Aurora-A(h) (Homo sapiens, UniProt O14965); conditions: read-out: % Inhibition @1 μM Auroro-A
T2 sequence (O14965 1-403): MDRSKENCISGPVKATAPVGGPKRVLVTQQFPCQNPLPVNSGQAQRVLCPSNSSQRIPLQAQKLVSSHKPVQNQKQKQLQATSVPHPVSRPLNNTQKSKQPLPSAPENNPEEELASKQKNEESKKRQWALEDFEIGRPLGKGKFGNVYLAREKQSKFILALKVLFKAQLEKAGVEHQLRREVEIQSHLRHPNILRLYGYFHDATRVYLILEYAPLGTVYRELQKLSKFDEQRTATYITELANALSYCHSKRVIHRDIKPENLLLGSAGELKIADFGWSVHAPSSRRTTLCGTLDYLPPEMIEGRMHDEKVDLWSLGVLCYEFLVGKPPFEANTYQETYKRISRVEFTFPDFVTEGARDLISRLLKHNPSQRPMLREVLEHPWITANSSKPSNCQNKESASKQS
Method: as §1, §2

Ret(h) = Ret(h) (Homo sapiens, UniProt P07949)
Ret(h), sequence (P07949 29-1114): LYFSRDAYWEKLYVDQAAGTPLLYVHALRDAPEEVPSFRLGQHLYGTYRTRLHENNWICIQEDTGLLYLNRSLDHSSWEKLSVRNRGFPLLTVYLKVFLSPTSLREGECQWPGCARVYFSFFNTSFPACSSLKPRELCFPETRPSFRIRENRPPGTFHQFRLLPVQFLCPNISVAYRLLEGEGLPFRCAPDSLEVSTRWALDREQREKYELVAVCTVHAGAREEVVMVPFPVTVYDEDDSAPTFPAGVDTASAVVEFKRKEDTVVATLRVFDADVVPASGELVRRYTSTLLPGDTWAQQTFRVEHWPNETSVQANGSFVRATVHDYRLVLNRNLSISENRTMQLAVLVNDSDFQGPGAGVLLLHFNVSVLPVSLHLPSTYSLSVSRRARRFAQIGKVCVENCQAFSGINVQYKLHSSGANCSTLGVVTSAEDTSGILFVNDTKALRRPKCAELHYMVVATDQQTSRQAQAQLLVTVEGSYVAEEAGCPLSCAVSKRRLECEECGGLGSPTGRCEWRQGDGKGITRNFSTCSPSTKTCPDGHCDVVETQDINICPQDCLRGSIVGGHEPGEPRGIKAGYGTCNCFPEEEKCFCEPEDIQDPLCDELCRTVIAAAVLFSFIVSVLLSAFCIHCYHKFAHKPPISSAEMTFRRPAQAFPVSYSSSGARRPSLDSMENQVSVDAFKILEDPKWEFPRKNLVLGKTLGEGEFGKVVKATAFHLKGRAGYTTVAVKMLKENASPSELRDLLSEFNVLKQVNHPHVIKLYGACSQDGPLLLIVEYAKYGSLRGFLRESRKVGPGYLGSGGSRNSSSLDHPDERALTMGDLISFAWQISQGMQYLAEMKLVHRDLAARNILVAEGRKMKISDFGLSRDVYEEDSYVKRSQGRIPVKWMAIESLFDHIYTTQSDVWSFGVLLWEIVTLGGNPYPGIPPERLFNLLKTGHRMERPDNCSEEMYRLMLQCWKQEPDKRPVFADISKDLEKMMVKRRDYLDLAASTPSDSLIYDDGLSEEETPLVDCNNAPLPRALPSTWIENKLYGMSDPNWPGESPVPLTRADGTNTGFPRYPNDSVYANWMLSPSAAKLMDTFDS
Method: as §1, §2

cSRC(h) = cSRC(h) (Homo sapiens, UniProt P12931)
cSRC(h), sequence (P12931 whole entry): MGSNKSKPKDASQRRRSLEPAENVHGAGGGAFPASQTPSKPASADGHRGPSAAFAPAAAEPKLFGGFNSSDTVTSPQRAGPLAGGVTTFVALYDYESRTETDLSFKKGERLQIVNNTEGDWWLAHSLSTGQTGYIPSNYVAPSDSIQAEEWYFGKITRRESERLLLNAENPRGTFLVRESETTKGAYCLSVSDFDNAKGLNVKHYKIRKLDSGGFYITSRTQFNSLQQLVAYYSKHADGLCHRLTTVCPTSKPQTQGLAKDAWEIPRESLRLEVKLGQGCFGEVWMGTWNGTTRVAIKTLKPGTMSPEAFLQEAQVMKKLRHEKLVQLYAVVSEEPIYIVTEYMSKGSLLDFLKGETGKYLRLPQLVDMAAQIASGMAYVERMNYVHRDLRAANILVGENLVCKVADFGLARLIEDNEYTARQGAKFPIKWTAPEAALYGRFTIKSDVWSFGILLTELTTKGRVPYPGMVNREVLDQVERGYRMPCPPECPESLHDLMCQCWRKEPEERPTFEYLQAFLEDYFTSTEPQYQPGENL
Method: as §1, §2

Abl(h) = Abl(h) (Homo sapiens, UniProt P00519)
Abl(h), sequence (P00519 whole entry): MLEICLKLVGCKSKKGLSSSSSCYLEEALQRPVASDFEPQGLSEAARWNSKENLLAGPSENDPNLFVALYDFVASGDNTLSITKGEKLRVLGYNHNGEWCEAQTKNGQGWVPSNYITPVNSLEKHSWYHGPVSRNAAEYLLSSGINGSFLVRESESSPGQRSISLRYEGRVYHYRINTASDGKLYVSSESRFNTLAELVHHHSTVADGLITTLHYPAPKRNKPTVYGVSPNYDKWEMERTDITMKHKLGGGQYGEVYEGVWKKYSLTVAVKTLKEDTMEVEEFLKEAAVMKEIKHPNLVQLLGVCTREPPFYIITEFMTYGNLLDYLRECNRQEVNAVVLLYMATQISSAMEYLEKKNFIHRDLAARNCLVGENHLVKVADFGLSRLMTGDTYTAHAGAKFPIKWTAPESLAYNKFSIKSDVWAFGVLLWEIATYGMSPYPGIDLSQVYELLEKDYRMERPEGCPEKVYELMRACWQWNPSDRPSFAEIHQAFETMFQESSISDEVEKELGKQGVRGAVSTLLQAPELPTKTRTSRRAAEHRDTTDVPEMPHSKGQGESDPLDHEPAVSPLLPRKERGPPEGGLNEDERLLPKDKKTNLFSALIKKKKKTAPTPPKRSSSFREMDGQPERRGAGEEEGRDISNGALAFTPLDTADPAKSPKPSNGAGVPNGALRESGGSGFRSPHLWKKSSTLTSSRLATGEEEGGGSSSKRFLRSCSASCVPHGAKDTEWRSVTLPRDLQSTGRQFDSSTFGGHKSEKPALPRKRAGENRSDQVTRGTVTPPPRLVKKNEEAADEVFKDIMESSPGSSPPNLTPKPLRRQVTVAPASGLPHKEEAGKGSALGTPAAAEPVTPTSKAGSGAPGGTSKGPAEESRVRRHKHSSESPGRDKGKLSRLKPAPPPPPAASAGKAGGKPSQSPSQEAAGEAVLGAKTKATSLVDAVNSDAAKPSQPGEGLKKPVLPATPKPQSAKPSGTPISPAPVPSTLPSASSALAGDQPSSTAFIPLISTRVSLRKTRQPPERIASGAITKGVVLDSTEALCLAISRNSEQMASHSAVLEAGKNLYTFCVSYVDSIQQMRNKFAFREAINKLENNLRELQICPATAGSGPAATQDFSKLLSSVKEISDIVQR

KDR(h) = KDR(h) (Homo sapiens, UniProt P35968)
KDR(h), sequence (P35968 20-1356): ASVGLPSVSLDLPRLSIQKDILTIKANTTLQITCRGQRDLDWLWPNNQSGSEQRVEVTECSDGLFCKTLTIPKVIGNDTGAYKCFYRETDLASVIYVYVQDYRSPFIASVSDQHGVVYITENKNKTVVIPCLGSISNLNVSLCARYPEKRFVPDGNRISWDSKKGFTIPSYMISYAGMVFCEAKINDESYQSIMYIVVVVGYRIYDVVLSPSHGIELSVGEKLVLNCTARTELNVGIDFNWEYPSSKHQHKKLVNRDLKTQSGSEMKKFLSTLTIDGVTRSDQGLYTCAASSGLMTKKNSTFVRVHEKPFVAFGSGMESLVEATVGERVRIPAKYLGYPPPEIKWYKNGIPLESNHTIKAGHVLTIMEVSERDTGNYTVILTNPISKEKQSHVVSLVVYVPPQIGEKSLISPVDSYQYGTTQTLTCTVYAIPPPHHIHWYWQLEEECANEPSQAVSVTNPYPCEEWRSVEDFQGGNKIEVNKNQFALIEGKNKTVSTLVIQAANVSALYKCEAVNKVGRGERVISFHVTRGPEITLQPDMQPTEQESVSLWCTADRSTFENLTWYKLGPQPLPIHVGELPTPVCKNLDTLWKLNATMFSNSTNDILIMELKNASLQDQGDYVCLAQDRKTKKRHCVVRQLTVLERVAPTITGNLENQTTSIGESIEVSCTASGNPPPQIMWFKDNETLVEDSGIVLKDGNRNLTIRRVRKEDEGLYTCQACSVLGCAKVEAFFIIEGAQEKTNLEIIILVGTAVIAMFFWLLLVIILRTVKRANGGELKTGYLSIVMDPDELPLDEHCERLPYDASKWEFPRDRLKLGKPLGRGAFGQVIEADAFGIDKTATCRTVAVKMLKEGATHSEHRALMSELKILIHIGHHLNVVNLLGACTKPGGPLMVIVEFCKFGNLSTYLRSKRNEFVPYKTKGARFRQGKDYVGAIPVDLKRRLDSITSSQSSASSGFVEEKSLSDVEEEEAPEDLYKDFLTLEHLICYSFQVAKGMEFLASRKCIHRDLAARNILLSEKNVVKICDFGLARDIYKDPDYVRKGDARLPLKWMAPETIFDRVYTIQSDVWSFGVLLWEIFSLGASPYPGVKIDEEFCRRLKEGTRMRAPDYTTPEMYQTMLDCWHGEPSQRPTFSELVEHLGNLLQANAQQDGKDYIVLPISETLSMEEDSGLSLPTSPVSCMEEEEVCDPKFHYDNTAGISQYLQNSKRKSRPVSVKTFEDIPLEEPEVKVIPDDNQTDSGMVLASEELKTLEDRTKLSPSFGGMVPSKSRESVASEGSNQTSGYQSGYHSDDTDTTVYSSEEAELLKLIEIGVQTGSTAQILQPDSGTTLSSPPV

Structure (SMILES): C/C=C/c1cc(Nc2cc(N3CCC(N(CC)CC)C3)nc(Oc3ccc4[nH]c(C)cc4c3F)n2)n[nH]1 (stereo not drawn) [Compound 62]
- inhibition at 1 µM (Flt3(h)): 99%
- inhibition at 1 µM (Aurora-A(h)): 102%
- inhibition at 1 µM (Ret(h)): 102%
- inhibition at 1 µM (cSRC(h)): 101%
- inhibition at 1 µM (Abl(h)): 111%
- inhibition at 1 µM (KDR(h)): 96%

Structure (SMILES): C/C=C/c1cc(Nc2cc(N3CCOCC3)nc(Oc3ccc4[nH]c(C)cc4c3F)n2)n[nH]1 [Compound 67]
- inhibition at 1 µM (Flt3(h)): 100%
- inhibition at 1 µM (Aurora-A(h)): 99%
- inhibition at 1 µM (Ret(h)): 100%
- inhibition at 1 µM (cSRC(h)): 99%
- inhibition at 1 µM (Abl(h)): 112%
- inhibition at 1 µM (KDR(h)): 91%

Structure (SMILES): C/C=C/c1cc(Nc2cc(N3CCN(CCF)CC3)nc(Oc3ccc4[nH]c(C)cc4c3F)n2)n[nH]1 [Compound 74]
- inhibition at 1 µM (Flt3(h)): 100%
- inhibition at 1 µM (Aurora-A(h)): 99%
- inhibition at 1 µM (Ret(h)): 102%
- inhibition at 1 µM (cSRC(h)): 100%
- inhibition at 1 µM (Abl(h)): 111%
- inhibition at 1 µM (KDR(h)): 96%

Structure (SMILES): Cc1cc2c(F)c(Oc3nc(Nc4cc(C5CC5)[nH]n4)cc(N4CCN(C)CC4)n3)cc(F)c2[nH]1 [Compound 81]
- inhibition at 1 µM (Flt3(h)): 101%
- inhibition at 1 µM (Aurora-A(h)): 99%
- inhibition at 1 µM (Ret(h)): 99%
- inhibition at 1 µM (cSRC(h)): 99%
- inhibition at 1 µM (Abl(h)): 110%
- inhibition at 1 µM (KDR(h)): 96%

Structure (SMILES): Cc1cc2c(F)c(Oc3nc(Nc4cc(C5CC5)[nH]n4)cc(N4CCOCC4)n3)cc(F)c2[nH]1 [Compound 84]
- inhibition at 1 µM (Flt3(h)): 100%
- inhibition at 1 µM (Aurora-A(h)): 98%
- inhibition at 1 µM (Ret(h)): 100%
- inhibition at 1 µM (cSRC(h)): 100%
- inhibition at 1 µM (Abl(h)): 103%
- inhibition at 1 µM (KDR(h)): 93%

Structure (SMILES): C/C=C/c1cc(Nc2cc(N3CCN(C)CC3)nc(Oc3cc(F)c4[nH]c(C)cc4c3F)n2)n[nH]1 [Compound 87]
- inhibition at 1 µM (Flt3(h)): 100%
- inhibition at 1 µM (Aurora-A(h)): 99%
- inhibition at 1 µM (Ret(h)): 83%
- inhibition at 1 µM (cSRC(h)): 95%
- inhibition at 1 µM (Abl(h)): 112%
- inhibition at 1 µM (KDR(h)): 95%

Structure (SMILES): C/C=C/c1cc(Nc2cc(N3CCOCC3)nc(Oc3cc(F)c4[nH]c(C)cc4c3F)n2)n[nH]1 [Compound 89]
- inhibition at 1 µM (Flt3(h)): 100%
- inhibition at 1 µM (Aurora-A(h)): 100%
- inhibition at 1 µM (Ret(h)): 99%
- inhibition at 1 µM (cSRC(h)): 100%
- inhibition at 1 µM (Abl(h)): 112%
- inhibition at 1 µM (KDR(h)): 96%

Structure (SMILES): C/C=C/c1cc(Nc2cc(N3CCC(O)C3)nc(Oc3cc(F)c4[nH]c(C)cc4c3F)n2)n[nH]1 (stereo not drawn) [Compound 92]
- inhibition at 1 µM (Flt3(h)): 100%
- inhibition at 1 µM (Aurora-A(h)): 100%
- inhibition at 1 µM (Ret(h)): 102%
- inhibition at 1 µM (cSRC(h)): 100%
- inhibition at 1 µM (Abl(h)): 111%
- inhibition at 1 µM (KDR(h)): 96%

Structure (SMILES): C/C=C/c1cc(Nc2cc(N3CCC(OC)C3)nc(Oc3cc(F)c4[nH]c(C)cc4c3F)n2)n[nH]1 (stereo not drawn) [Compound 93]
- inhibition at 1 µM (Flt3(h)): 100%
- inhibition at 1 µM (Aurora-A(h)): 102%
- inhibition at 1 µM (Ret(h)): 102%
- inhibition at 1 µM (cSRC(h)): 101%
- inhibition at 1 µM (Abl(h)): 111%
- inhibition at 1 µM (KDR(h)): 95%

Structure (SMILES): C/C=C/c1cc(Nc2cc(N3CCC(N(CC)CC)C3)nc(Oc3cc(F)c4[nH]c(C)cc4c3F)n2)n[nH]1 (stereo not drawn) [Compound 94]
- inhibition at 1 µM (Flt3(h)): 99%
- inhibition at 1 µM (Aurora-A(h)): 100%
- inhibition at 1 µM (Ret(h)): 102%
- inhibition at 1 µM (cSRC(h)): 100%
- inhibition at 1 µM (Abl(h)): 111%
- inhibition at 1 µM (KDR(h)): 96%

Structure (SMILES): C/C=C/c1cc(Nc2cc(N3CCC(O)CC3)nc(Oc3cc(F)c4[nH]c(C)cc4c3F)n2)n[nH]1 [Compound 95]
- inhibition at 1 µM (Flt3(h)): 100%
- inhibition at 1 µM (Aurora-A(h)): 100%
- inhibition at 1 µM (Ret(h)): 101%
- inhibition at 1 µM (cSRC(h)): 100%
- inhibition at 1 µM (Abl(h)): 110%
- inhibition at 1 µM (KDR(h)): 96%
